ChEMBL document CHEMBL1759884, “Synthesis and evaluation of bibenzyl glycosides as potent tyrosinase inhibitors” (Eur J Med Chem, 2011)

Biological target: Tyrosinase (Agaricus bisporus)
Assay: Inhibition of Tyrosinase

Compound | IC50 [nM]
OC[C@H]1O[C@@H](Oc2ccc(CCc3ccc(O)cc3O)c(O)c2)[C@H](O)[C@@H](O)[C@@H]1O | 770
OC[C@H]1O[C@H](O[C@H]2[C@H](O)[C@@H](O)[C@H](Oc3ccc(CCc4ccc(O)cc4O)c(O)c3)O[C@@H]2CO)[C@H](O)[C@@H](O)[C@@H]1O | 830
Oc1ccc(CCc2ccc(O)cc2O[C@@H]2OC[C@@H](O)[C@H](O)[C@H]2O)c(O)c1 | 1600

Stronger by IC50, values ahead:

IC50 [nM] | Compound
680 | OC[C@H]1O[C@@H](O[C@H]2[C@H](O)[C@@H](O)[C@H](Oc3ccc(CCc4ccc(O)cc4O)c(O)c3)O[C@@H]2CO)[C@H](O)[C@@H](O)[C@@H]1O
430 | Oc1ccc(CCc2ccc(O[C@@H]3OC[C@@H](O)[C@H](O)[C@H]3O)cc2O)c(O)c1
